Experimental data from publication PMC8398766, “Do Small Molecules Activate the TrkB Receptor in the Same Manner as BDNF? Limitations of Published TrkB Low Molecular Agonists and Screening for Novel TrkB Orthosteric Agonists” (Pharmaceuticals, 2021).
Entries after “also recorded” stand apart in the source; their conditions may differ.

B1: BDNF: Brain-derived neurotrophic factor, endogenous TrkB receptor agonist (protein, UniProt P23560 19-247, looked up)
Neurotrophic factor BDNF …: APMKEANIRGQGGLAYPGVRTHGTLESVNGPKAGSRGLTSLADTFEHVIEELLDEDQKVRPNEENNKDADLYTSRVMLSSQVPLEPPLLFLLEEYKNYLDAANMSMRVRRHSDPARRGELSVCDSISEWVTAADKKTAVDMSGGTVTVLEKVPVSKGQLKQYFYETKCNPMGYTKEGCRGIDKRHWNSQCRTTQSYVRALTMDSKKRIGWRFIRIDTSCVCTLTIKRGR

Experiments:
Format in all cases: cell-based
[1] = test system: RA-differentiated SH-SY5Y cells; assay: Cytoprotection against MPP+-induced cytotoxicity; settings: MPP+ 0.5 mM, compounds 0.3, 1, 3 μM, BDNF 1, 10, 100 ng/mL, 72 h + 72 h
Protocol: (§1) To differentiate SH-SY5Y, cells were seeded in a cell culture flask at a density of 10,000 cells/cm^2 in standard growth medium containing 10 μM retinoic acid (RA; MilliporeSigma) and cultured for 7 consecutive days. Then, differentiated cells were harvested by trypsinization (Trypsin-EDTA 1×, 3 min at 37 °C), centrifuged (250× g; 5 min at 25 °C) and counted. The desired experiment cells were seeded in differentiation medium (MEM:Ham’s F12 growth medium +10 μM RA) in multi-well plates at the following densities: 1,000,000 cells/well on a 6-well plate for lysate collection and immunoblot analysis, and 12,000 cells/well into a PDL-treated 96-well plate (BioCoat™, Corning Inc.) for neuroprotection experiments.
The experiment design was adopted from the article published by Presgraves et al., (2004), with the following modifications. Differentiated SH-SY5Y were prepared as described in Section 4.3.1. On the day of the experiment (Day 0), culture medium containing 10 μM RA was changed for treatment medium composed of MEM:HAM’S F12 (1:1 v/v), 1 × Antibiotic-Antimycotic, and 1 × MEM Non-Essential Amino Acids, with the FBS reduced to 0.5%. In this step, RealTime-Glo™ reagents (Promega, Madison, WI, USA) were added to the treatment medium (to a final concentration of 0.5 × ). Cell viability was measured after 1 h of incubation at 37 °C using a luminometer (VICTOR Light 1420-060) for normalization. Then, the tested compounds and BDNF were diluted in culturing medium as 2 × concentrate (final concentrations of 0.3, 1, and 3 μM for the small molecular compounds and 1, 10, and 100 ng/mL for BDNF) and added into wells for 72 h of incubation (volume, 100 μL/well). Then (Day 3), the treatment medium was replaced with fresh medium containing 0.5 × RealTime-Glo™ reagents (volume, 100 μL/well), and the cell viability was measured for normalization. Then, compounds and BDNF were added as 4 × concentrates (volume, 50 μL/well). In addition, MPP^+ was also diluted in treatment medium and added to the wells as a 4 × concentrate (final concentration, 0.5 mM; volume, 50 μL/well). The cells were incubated for a further 72 h at 37 °C. On Day 6, the cell viability was measured 1 h after replacing the medium with the medium containing 0.5 × RealTime-Glo™ (volume 100 μL/well). The experiments were performed with three biological independent replicates, and the final cell viability (endpoint, Day 6) was normalized to the normalized cell viability calculated on Day 3.

[2] = test system: TrkB and downstream proteins (PLCγ1, Akt1, ERK1/2); assay: Downstream signaling immunoblot, RA-differentiated SH-SY5Y cell line; settings: for Phosphorylation of TrkB and downstream proteins (PLCγ1, Akt1, ERK1/2): RA-differentiated SH-SY5Y, 1, 10, 100 μM, 15 min
Protocol: The SH-SY5Y cell line was purchased from MilliporeSigma and cultured in growth medium: MEM (w/Earle’s Salts; w/L-Glutamine) + Ham’s F12 (w/L-Glutamine) (1:1 v/v), 1 × Antibiotic-Antimycotic, 1 × MEM Non-Essential Amino Acids (all reagents from Biowest, Riverside, MO, USA) and 15% FBS (Gibco, Thermo Fisher Scientific, Waltham, MA, USA). Cells were passaged using 0.25% Trypsin-EDTA (Biowest) and cultured in standard conditions (5% CO2, 37 °C with 95% relative humidity).
as §1
(§2) On the day of the experiments, cells were starved for 5 h with appropriate culture medium. SN56 T48 cells were treated with reference compounds at 100 μM or 1, 10, or 100 μM concentrations of the selected molecules, and 1, 10, and 100 ng/mL of BDNF. Differentiated SH-SY5Y cells were treated with 1, 10, or 100 μM concentrations of the tested molecules and 1, 10, and 100 ng/mL of BDNF for 15 min. For compound specificity, the evaluation cell lines were first pretreated with 1 μM K252a (MilliporeSigma, Saint Louis, MO, USA) for 15 min and then cotreated with 100 μM concentrations of the tested molecules.
(§3) Compound treatment was stopped by lysing cells with N-PER™ Neuronal Protein Extraction Reagent (Thermo Fisher Scientific) containing 1 × PhosSTOP™ (Roche, Basel, Switzerland), 1 × Halt Protease Inhibitor Single-Use Cocktail (ThermoFisher Scientific) and 5 mM EDTA. The lysates were collected by scraping, and centrifuged (8000× g; 10 min at 4 °C), and the protein concentration was determined using a BCA Pierce kit (ThermoFisher Scientific). The lysates were stored at −80 °C until further processing. Samples containing 20 μg of protein were further denatured in 4 × Laemli Buffer with 5% β-mercaptoethanol at 95 °C for 5 min and electrophoresed on gels prepared using a 10% TGX Stain-Free™ FastCast™ Acrylamide Kit (Bio-Rad). Afterwards, the proteins were transferred (wet transfer, 100 V, 60 min) onto nitrocellulose membranes (GE Healthcare, Chicago, IL, USA), which were blocked in 5% BSA in TBS-T (TBS + 0.1% Tween20) for 2 h. […] After repeated washes (TBS-T), the proteins were detected with HRP-conjugated anti-rabbit antibodies (1:4000, RT, 2 h) (Cell Signaling Technology), and the blots were incubated with Clarity Max ECL Western Blotting Substrate (Bio-Rad). Blot images and chemiluminescence signals were captured using a ChemiDoc MP Imaging System, and densitometry values were calculated using the Image Lab software (Bio-Rad). […]

[3] = test system: TrkB and downstream proteins (PLCγ1, Akt1, ERK1/2); assay: Downstream signaling immunoblot, SN56 T48 cell line; settings: for Phosphorylation of TrkB and downstream proteins (PLCγ1, Akt1, ERK1/2): compounds up to 100 μM, BDNF up to 100 ng/mL, 15 min
Protocol: The SN56 T48 cell line with stable overexpression of the TrkB receptor was purchased from Emory University (Atlanta, GA, USA) and cultivated according to the protocol described in Jang et al., 2010 [12]. The cell lines were cultivated with the following reagents: DMEM High Glucose, fetal bovine serum (FBS), Penicillin-Streptomycin Solution 100×, and Trypsin-EDTA 1×; all were purchased from Biowest, and G418 was from ThermoFisher Scientific. For the ELFI experiments, cells were seeded (8000/well) on a PDL-treated 96-well plate (BioCoat™, Corning Inc., Corning, NY, USA) and 6-well plate (400,000/well) for lysate collection and immunoblot analysis.
as §2, §3

Row | Molecule | Cytoprotective effect (cell viability) [1] | Cytoprotective effect (cell viability) ([1]; listed as CPL503051) | Phosphorylation of TrkB and downstream proteins (PLCγ1, Akt1, ERK1/2) [2] | Activation of downstream proteins (Akt1 and ERK1/2) after inhibition of TrkB kinase by K252a ([3]; K252a 1 μM 15 min before 100 μM compound) | Phosphorylation of TrkB and downstream proteins (PLCγ1, Akt1, ERK1/2) [3] | Effect of cotreatment with K252a on the compound's effects ([2]; K252a 1 μM)
1 | O=C1C(O)=C(c2c[nH]c3ccccc23)C(=O)C(O)=C1c1c[nH]c2ccccc12 [CPL503052, didemethylasterriquinone D] | no cytoprotective properties | did not demonstrate any cytoprotective effect | able to induce the phosphorylation of TrkB, Akt1, ERK1/2, and PLCγ1 | did not repress | demonstrated the activation of the TrkB receptor and phosphorylation of relevant downstream proteins | 
2 | O=c1cc(-c2ccccc2)oc2c(O)c(O)ccc12 [7,8-DHF, 7,8-dihydroxyflavone] | not able to protect; also recorded: not able to confirm any cytoprotective action |  | did not result in the expected effect; also recorded: lack of 7,8-DHF activity |  | did not induce; also recorded: lack of 7,8-DHF activity | 
3 | C=CC(C)(C)c1[nH]c2ccccc2c1C1=C(O)C(=O)C(c2c[nH]c3c(CC=C(C)C)cccc23)=C(O)C1=O [DMAQ-B1] | did not demonstrate any cytoprotective effect |  | able to induce the phosphorylation of TrkB, Akt1, ERK1/2, and PLCγ1 |  |  | did not inhibit
4 | B1 | dose-dependent cytoprotective effect |  | induced the TrkB receptor and phosphorylation of downstream proteins |  | significantly increased phosphorylation | 
